Assay results from the supplement of paper PMC10307832.

Tests used:
Assay in all cases: relative viability (nuclei count vs DMSO), 5 days (fraction); higher = more cells survive
SW 1573 = tested on: SW 1573
In short: (§1)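 Lung cancer cell lines in 1536-well plates were dosed by pin tool the day after seeding, either with one drug alone or with a fixed anchor-drug dose plus five library-drug doses (not always all listed) in √10 steps. After 5 days, cells were fixed and their nuclei stained in one step (final 0.05% Triton X-100, 1% formaldehyde, 1 ug/ml Hoechst), then counted on 4× images. Relative viability is the nuclei count in treated wells divided by that in vehicle wells. Values are medians of duplicate plates.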

LU99A = tested on: LU99A
In short: as §1

LC-2-ad = tested on: LC-2-ad
In short: as §1

NCI-H650 = tested on: NCI-H650
In short: as §1

NCI-H1437 = tested on: NCI-H1437
In short: as §1

NCI-H1734 = tested on: NCI-H1734
In short: as §1

SW 900 = tested on: SW 900
In short: as §1

NCI-H2023 = tested on: NCI-H2023
In short: as §1

BEN = tested on: BEN
In short: as §1

NCI-H2126 = tested on: NCI-H2126
In short: as §1

NCI-H2170 = tested on: NCI-H2170
In short: as §1

NCI-H727 = tested on: NCI-H727
In short: as §1

EMC-BAC-2 = tested on: EMC-BAC-2
In short: as §1

NCI-H1915 = tested on: NCI-H1915
In short: as §1

NCI-H1755 = tested on: NCI-H1755
In short: as §1

NCI-H3122 = tested on: NCI-H3122
In short: as §1

NCI-H358 = tested on: NCI-H358
In short: as §1

HOP-62 = tested on: HOP-62
In short: as §1

NCI-H1563 = tested on: NCI-H1563
In short: as §1

HCC-15 = tested on: HCC-15
In short: as §1

NCI-H1395 = tested on: NCI-H1395
In short: as §1

With `Cc1csc(=NC2CCCCC2)n1/N=C/c1ccc(O)c(O)c1O` [MIM1] + COc1cc2c(Oc3ccc(NC(=O)C4(C(=O)Nc5ccc(F)cc5)CC4)cc3F)ccnc2cc1OCCCN1CCOCC1 [Foretinib] (partner 0.25 µM) the relative viability (SW 1573; first compound 0.2 µM) was 1.04, the relative viability (SW 1573; first compound 0.6325 µM) was 0.963 and the relative viability (SW 1573; first compound 2 µM) was 0.809. It also gave a relative viability (SW 1573; first compound 6.325 µM) of 0.871, a relative viability (SW 1573; first compound 20 µM) of 0.539 and a relative viability (LU99A; first compound 0.2 µM) of 0.808. It also gave a relative viability (LU99A; first compound 0.6325 µM) of 0.775, a relative viability (LU99A; first compound 2 µM) of 0.751 and a relative viability (LU99A; first compound 6.325 µM) of 0.743. For the same molecule, the relative viability (LU99A; first compound 20 µM) was 0.407, the relative viability (LC-2-ad; first compound 0.2 µM) was 0.896 and the relative viability (LC-2-ad; first compound 0.6325 µM) was 0.783. It also gave a relative viability (LC-2-ad; first compound 2 µM) of 0.745, a relative viability (LC-2-ad; first compound 6.325 µM) of 0.631 and a relative viability (LC-2-ad; first compound 20 µM) of 0.159. It also gave a relative viability (NCI-H650; first compound 0.2 µM) of 1.05, a relative viability (NCI-H650; first compound 0.6325 µM) of 1.05 and a relative viability (NCI-H650; first compound 2 µM) of 1.02. The relative viability (NCI-H650; first compound 6.325 µM) was 0.924, the relative viability (NCI-H650; first compound 20 µM) was 0.412 and the relative viability (NCI-H1437; first compound 0.2 µM) was 1.24. The relative viability (NCI-H1437; first compound 0.6325 µM) was 1.34, the relative viability (NCI-H1437; first compound 2 µM) was 1.19 and the relative viability (NCI-H1437; first compound 6.325 µM) was 1.1. The relative viability (NCI-H1437; first compound 20 µM) was 0.243, the relative viability (NCI-H1734; first compound 0.2 µM) was 0.884 and the relative viability (NCI-H1734; first compound 0.6325 µM) was 0.886. The relative viability (NCI-H1734; first compound 2 µM) was 0.772, the relative viability (NCI-H1734; first compound 6.325 µM) was 0.478 and the relative viability (NCI-H1734; first compound 20 µM) was 0.255. For the same molecule, the relative viability (SW 900; first compound 0.2 µM) was 1.17, the relative viability (SW 900; first compound 0.6325 µM) was 0.864 and the relative viability (SW 900; first compound 2 µM) was 0.854. It also gave a relative viability (SW 900; first compound 6.325 µM) of 0.917, a relative viability (SW 900; first compound 20 µM) of 0.443 and a relative viability (NCI-H2023; first compound 0.2 µM) of 0.691. For the same molecule, the relative viability (NCI-H2023; first compound 0.6325 µM) was 0.941, the relative viability (NCI-H2023; first compound 2 µM) was 0.7 and the relative viability (NCI-H2023; first compound 6.325 µM) was 0.599. For the same molecule, the relative viability (NCI-H2023; first compound 20 µM) was 0.453, the relative viability (BEN; first compound 0.2 µM) was 0.705 and the relative viability (BEN; first compound 0.6325 µM) was 0.531. It also gave a relative viability (BEN; first compound 2 µM) of 0.719, a relative viability (BEN; first compound 6.325 µM) of 0.551 and a relative viability (BEN; first compound 20 µM) of 0.294. The relative viability (NCI-H2126; first compound 0.2 µM) was 1.14, the relative viability (NCI-H2126; first compound 0.6325 µM) was 1.17 and the relative viability (NCI-H2126; first compound 2 µM) was 1.35. The relative viability (NCI-H2126; first compound 6.325 µM) was 1.12, the relative viability (NCI-H2126; first compound 20 µM) was 0.491 and the relative viability (NCI-H2170; first compound 0.2 µM) was 0.979. The relative viability (NCI-H2170; first compound 0.6325 µM) was 1.01, the relative viability (NCI-H2170; first compound 2 µM) was 0.824 and the relative viability (NCI-H2170; first compound 6.325 µM) was 0.77. It also gave a relative viability (NCI-H2170; first compound 20 µM) of 0.295, a relative viability (NCI-H727; first compound 0.2 µM) of 0.948 and a relative viability (NCI-H727; first compound 0.6325 µM) of 0.883. The relative viability (NCI-H727; first compound 2 µM) was 0.732, the relative viability (NCI-H727; first compound 6.325 µM) was 0.968 and the relative viability (NCI-H727; first compound 20 µM) was 0.439. The relative viability (EMC-BAC-2; first compound 0.2 µM) was 0.698, the relative viability (EMC-BAC-2; first compound 0.6325 µM) was 1 and the relative viability (EMC-BAC-2; first compound 2 µM) was 0.963. For the same molecule, the relative viability (EMC-BAC-2; first compound 6.325 µM) was 0.697, the relative viability (EMC-BAC-2; first compound 20 µM) was 0.449 and the relative viability (NCI-H1915; first compound 0.2 µM) was 1.13. The relative viability (NCI-H1915; first compound 0.6325 µM) was 1.07, the relative viability (NCI-H1915; first compound 2 µM) was 1.07 and the relative viability (NCI-H1915; first compound 6.325 µM) was 0.83. It also gave a relative viability (NCI-H1915; first compound 20 µM) of 0.251, a relative viability (NCI-H1755; first compound 0.2 µM) of 0.882 and a relative viability (NCI-H1755; first compound 0.6325 µM) of 0.927. The relative viability (NCI-H1755; first compound 2 µM) was 0.902, the relative viability (NCI-H1755; first compound 6.325 µM) was 0.72 and the relative viability (NCI-H1755; first compound 20 µM) was 0.563. The relative viability (NCI-H3122; first compound 0.2 µM) was 0.891, the relative viability (NCI-H3122; first compound 0.6325 µM) was 1.03 and the relative viability (NCI-H3122; first compound 2 µM) was 1.03. It also gave a relative viability (NCI-H3122; first compound 6.325 µM) of 0.683, a relative viability (NCI-H3122; first compound 20 µM) of 0.64 and a relative viability (NCI-H358; first compound 0.2 µM) of 0.646. It also gave a relative viability (NCI-H358; first compound 0.6325 µM) of 0.758, a relative viability (NCI-H358; first compound 2 µM) of 0.623 and a relative viability (NCI-H358; first compound 6.325 µM) of 0.348. For the same molecule, the relative viability (NCI-H358; first compound 20 µM) was 0.149, the relative viability (HOP-62; first compound 0.2 µM) was 1.14 and the relative viability (HOP-62; first compound 0.6325 µM) was 1.1. For the same molecule, the relative viability (HOP-62; first compound 2 µM) was 0.986, the relative viability (HOP-62; first compound 6.325 µM) was 0.94 and the relative viability (HOP-62; first compound 20 µM) was 0.278. The relative viability (NCI-H1563; first compound 0.2 µM) was 0.971, the relative viability (NCI-H1563; first compound 0.6325 µM) was 0.975 and the relative viability (NCI-H1563; first compound 2 µM) was 0.866. The relative viability (NCI-H1563; first compound 6.325 µM) was 0.819, the relative viability (NCI-H1563; first compound 20 µM) was 0.772 and the relative viability (HCC-15; first compound 0.2 µM) was 1.09. It also gave a relative viability (HCC-15; first compound 2 µM) of 1.06, a relative viability (HCC-15; first compound 6.325 µM) of 0.764 and a relative viability (HCC-15; first compound 20 µM) of 0.157. The relative viability (NCI-H1395; first compound 0.2 µM) was 1.03, the relative viability (NCI-H1395; first compound 0.6325 µM) was 0.975 and the relative viability (NCI-H1395; first compound 2 µM) was 0.905. It also gave a relative viability (NCI-H1395; first compound 6.325 µM) of 0.917 and a relative viability (NCI-H1395; first compound 20 µM) of 0.388.
